Measurements as given in paper PMC7904550, “Application of grouping and read-across for the evaluation of parabens of different chain lengths with a particular focus on endocrine properties” (Archives of Toxicology, 2021).
Read-outs that look alike come from different tables or passages of the source.

Key:
Wistar rats [1] = assay: 90-day repeated dose oral toxicity study (OECD TG 408); assay type: in vivo, rat; conditions: for NOAEL, 90-day repeated-dose toxicity: OECD 408 v 2018, oral gavage
Source text: Healthy and specific pathogen-free male and female (non-pregnant and nulliparous) Wistar Crl: WI(Han) rats were obtained from Charles River Laboratories (Germany). […] Upon arrival at BSL BIOSERVICE, the animals underwent an acclimatisation period of at least 5 days, and they were approximately 15–16 weeks old at the onset of the treatment period.

Wistar rats [2] = assay: Higher-tier studies taken together (OECD TG 408, 414, 421/422, 443): NOAEL
Description: All in vivo studies were conducted as oral gavage studies, selecting the oral route as most appropriate route of administration to reflect the worst-case exposure scenario. […] The OECD TG 443 included mating of first generation (F1) offspring to produce a second generation (F2), and the DIT and DNT cohorts.

rats [3] = conditions: rat, in vivo; cited from earlier work
rats [4] = conditions: rat, in vivo; cited from earlier work; remark: listed apart in the source
rats [5] = conditions: read-across from MP; ref ECHA dissemination portal; cited from earlier work
Wistar rats [6] = conditions: ref Harlan 2012, cited from earlier work

CCCOC(=O)c1ccc(O)cc1 [Propyl paraben, Propyl 4-hydroxybenzoate]
NOAEL, 90-day repeated-dose toxicity (Wistar rats [1]): NOAEL: 1000 (OECD 408; v 2018) mg/kg body weight/day | NOAEL, 90-day repeated-dose toxicity (Wistar rats [1]; listed as propyl paraben): 1000 mg/kg body weight/day | Accessory sex organs HP (Wistar rats [1]; P0): NAE / NAE | Adrenals HP (Wistar rats [1]; P0): NAE / NAE | Adrenals weight (Wistar rats [1]; P0): NAE / NAE | Brain weight (Wistar rats [1]; P0): NAE / NAE | Cervix HP (Wistar rats [1]; P0): NAE / NAE | Coagulating gland HP (Wistar rats [1]; P0): NAE / NAE | Coagulating gland weight (Wistar rats [1]; P0): NAE / NAE | Epididymis HP (Wistar rats [1]; P0): NAE / NAE | Epididymis weight (Wistar rats [1]; P0): NAE / NAE | Liver weight (Wistar rats [1]; P0): NAE / NAE | Mammary gland HP; females (Wistar rats [1]; P0): NAE / NAE | Mammary gland HP; males (Wistar rats [1]; P0): NAE / NAE | Oestrus cyclicity (Wistar rats [1]; P0): NAE / NAE | Ovary HP (Wistar rats [1]; P0): NAE / NAE | Ovary weight (Wistar rats [1]; P0): NAE / NAE | Oviduct HP (Wistar rats [1]; P0): NAE / NAE | Pituitary HP (Wistar rats [1]; P0): NAE / NAE | Pituitary weight (Wistar rats [1]; P0): NAE / NAE | Prostate HP (Wistar rats [1]; P0): NAE / NAE | Prostate weight (Wistar rats [1]; P0): NAE / NAE | Seminal vesicles HP (Wistar rats [1]; P0): NAE / NAE | Seminal vesicles weight (Wistar rats [1]; P0): NAE / NAE | Testis HP (Wistar rats [1]; P0): NAE / NAE | Testis weight (Wistar rats [1]; P0): NAE / NAE | Thyroid HP (Wistar rats [1]; P0): NAE / NAE | Thyroid stimulating hormone level (Wistar rats [1]; P0): NAE / NAE | Thyroid weight (Wistar rats [1]; P0): NAE / NAE | Triiodothyronine / thyroxine level (Wistar rats [1]; P0): NAE / NAE | Uterus HP (with cervix) (Wistar rats [1]; P0): NAE / NAE | Uterus weight (with cervix) (Wistar rats [1]; P0): NAE / NAE | Vagina HP (Wistar rats [1]; P0): NAE / NAE | Vaginal smears (Wistar rats [1]; P0): NAE / NAE | Signs of systemic toxicity (Wistar rats [1]; sub-chronic (90-day) oral application): did not induce any signs of systemic toxicity | NOAEL, repeated-dose toxicity and DART, all higher-tier studies (Wistar rats [2]; limit dose, oral gavage): 1000 mg/kg bw/day | NOAEL: Accessory sex organs HP (Wistar rats [2]; over all higher-tier studies): 1000 / 1000 mg/kg bw/day | NOAEL: Adrenals HP (Wistar rats [2]; over all higher-tier studies): 1000 / 1000 mg/kg bw/day | NOAEL: Adrenals weight (Wistar rats [2]; over all higher-tier studies): 1000 / 1000 mg/kg bw/day | NOAEL: Age at balano-preputial separation (Wistar rats [2]; over all higher-tier studies): 1000 / 1000 mg/kg bw/day | NOAEL: Age at vaginal opening (Wistar rats [2]; over all higher-tier studies): 1000 / 1000 mg/kg bw/day | NOAEL: Anogenital distance (Wistar rats [2]; over all higher-tier studies): 1000 / 1000 mg/kg bw/day | NOAEL: Auditory startle (Wistar rats [2]; over all higher-tier studies): 1000 / 1000 mg/kg bw/day | NOAEL: Brain HP (Wistar rats [2]; over all higher-tier studies): 1000 / 1000 mg/kg bw/day | NOAEL: Brain morphometric evaluation (Wistar rats [2]; over all higher-tier studies): 1000 / 1000 mg/kg bw/day | NOAEL: Brain weight (Wistar rats [2]; over all higher-tier studies): 1000 / 1000 mg/kg bw/day | NOAEL: Cervix HP (Wistar rats [2]; over all higher-tier studies): 1000 / 1000 mg/kg bw/day | NOAEL: Coagulating gland HP (Wistar rats [2]; over all higher-tier studies): 1000 / 1000 mg/kg bw/day | NOAEL: Coagulating gland weight (Wistar rats [2]; over all higher-tier studies): 1000 / 1000 mg/kg bw/day | NOAEL: Colloid area (thyroid HP) (Wistar rats [2]; over all higher-tier studies): 1000 / 1000 mg/kg bw/day | NOAEL: Dystocia (Wistar rats [2]; over all higher-tier studies): 1000 / 1000 mg/kg bw/day | NOAEL: Epididymis HP (Wistar rats [2]; over all higher-tier studies): 1000 / 1000 mg/kg bw/day | NOAEL: Epididymis weight (Wistar rats [2]; over all higher-tier studies): 1000 / 1000 mg/kg bw/day | NOAEL: Fertility (Wistar rats [2]; over all higher-tier studies): 1000 / 1000 mg/kg bw/day | NOAEL: Foetal development (Wistar rats [2]; over all higher-tier studies): 1000 / 1000 mg/kg bw/day | NOAEL: Functional observation battery (Wistar rats [2]; over all higher-tier studies): 1000 / 1000 mg/kg bw/day | NOAEL: Genital abnormalities (Wistar rats [2]; over all higher-tier studies): 1000 / 1000 mg/kg bw/day | NOAEL: Gestation length (Wistar rats [2]; over all higher-tier studies): 1000 / 1000 mg/kg bw/day | NOAEL: Litter / pup weight (Wistar rats [2]; over all higher-tier studies): 1000 / 1000 mg/kg bw/day | NOAEL: Litter size (Wistar rats [2]; over all higher-tier studies): 1000 / 1000 mg/kg bw/day | NOAEL: Litter viability (Wistar rats [2]; over all higher-tier studies): 1000 / 1000 mg/kg bw/day | NOAEL: Liver weight (Wistar rats [2]; over all higher-tier studies): 1000 / 1000 mg/kg bw/day | NOAEL: Mammary gland HP; females (Wistar rats [2]; over all higher-tier studies): 1000 / 1000 mg/kg bw/day | NOAEL: Mammary gland HP; males (Wistar rats [2]; over all higher-tier studies): 1000 / 1000 mg/kg bw/day | NOAEL: Motor activity (Wistar rats [2]; over all higher-tier studies): 1000 / 1000 mg/kg bw/day | NOAEL: Nipple development (Wistar rats [2]; over all higher-tier studies): 1000 / 1000 mg/kg bw/day | NOAEL: No. of implantations, corpora lutea (Wistar rats [2]; over all higher-tier studies): 1000 / 1000 mg/kg bw/day | NOAEL: No. of live births (Wistar rats [2]; over all higher-tier studies): 1000 / 1000 mg/kg bw/day | NOAEL: No. of ovarian follicles (Wistar rats [2]; over all higher-tier studies): 1000 / 1000 mg/kg bw/day | NOAEL: Oestrus cyclicity (Wistar rats [2]; over all higher-tier studies): 1000 / 1000 mg/kg bw/day | NOAEL: Offspring: learning & memory (Wistar rats [2]; over all higher-tier studies): 1000 / 1000 mg/kg bw/day | NOAEL: Ovary HP (Wistar rats [2]; over all higher-tier studies): 1000 / 1000 mg/kg bw/day | NOAEL: Ovary weight (Wistar rats [2]; over all higher-tier studies): 1000 / 1000 mg/kg bw/day | NOAEL: Oviduct HP (Wistar rats [2]; over all higher-tier studies): 1000 / 1000 mg/kg bw/day | NOAEL: Pituitary HP (Wistar rats [2]; over all higher-tier studies): 1000 / 1000 mg/kg bw/day | NOAEL: Pituitary weight (Wistar rats [2]; over all higher-tier studies): 1000 / 1000 mg/kg bw/day | NOAEL: Postimplantation loss (Wistar rats [2]; over all higher-tier studies): 1000 / 1000 mg/kg bw/day | NOAEL: Pre-implantation loss (Wistar rats [2]; over all higher-tier studies): 1000 / 1000 mg/kg bw/day | NOAEL: Presence of anomalies (Wistar rats [2]; over all higher-tier studies): 1000 / 1000 mg/kg bw/day | NOAEL: Prostate HP (Wistar rats [2]; over all higher-tier studies): 1000 / 1000 mg/kg bw/day | NOAEL: Prostate weight (Wistar rats [2]; over all higher-tier studies): 1000 / 1000 mg/kg bw/day | NOAEL: Pup development (Wistar rats [2]; over all higher-tier studies): 1000 / 1000 mg/kg bw/day | NOAEL: Reproduction (Wistar rats [2]; over all higher-tier studies): 1000 / 1000 mg/kg bw/day | NOAEL: Seminal vesicles HP (Wistar rats [2]; over all higher-tier studies): 1000 / 1000 mg/kg bw/day | NOAEL: Seminal vesicles weight (Wistar rats [2]; over all higher-tier studies): 1000 / 1000 mg/kg bw/day | NOAEL: Sperm morphology (Wistar rats [2]; over all higher-tier studies): 1000 / 1000 mg/kg bw/day | NOAEL: Sperm motility (Wistar rats [2]; over all higher-tier studies): 1000 / 1000 mg/kg bw/day | NOAEL: Sperm numbers (Wistar rats [2]; over all higher-tier studies): 1000 / 1000 mg/kg bw/day | NOAEL: Testis HP (Wistar rats [2]; over all higher-tier studies): 1000 / 1000 mg/kg bw/day | NOAEL: Testis weight (Wistar rats [2]; over all higher-tier studies): 1000 / 1000 mg/kg bw/day | NOAEL: Thyroid HP (Wistar rats [2]; over all higher-tier studies): 1000 / 1000 mg/kg bw/day | NOAEL: Thyroid stimulating hormone level (Wistar rats [2]; over all higher-tier studies): 1000 / 1000 mg/kg bw/day | NOAEL: Thyroid weight (Wistar rats [2]; over all higher-tier studies): 1000 / 1000 mg/kg bw/day | NOAEL: Time to mating (Wistar rats [2]; over all higher-tier studies): 1000 / 1000 mg/kg bw/day | NOAEL: Triiodothyronine / thyroxine level (Wistar rats [2]; over all higher-tier studies): 1000 / 1000 mg/kg bw/day | NOAEL: Uterus HP (with cervix) (Wistar rats [2]; over all higher-tier studies): 1000 / 1000 mg/kg bw/day | NOAEL: Uterus weight (with cervix) (Wistar rats [2]; over all higher-tier studies): 1000 / 1000 mg/kg bw/day | NOAEL: Vagina HP (Wistar rats [2]; over all higher-tier studies): 1000 / 1000 mg/kg bw/day | NOAEL: Vaginal smears (Wistar rats [2]; over all higher-tier studies): 1000 / 1000 mg/kg bw/day | Skin irritation/skin corrosion classification (rats [3]): Not irritating (read-across) | Eye irritation/eye corrosion classification (rats [4]): Not irritating [c] (OECD 437 and 405; 2012) | Genetic toxicity in vivo (rats) classification (rats [5]): Not clastogenic (read-across from MP) | NOAEL (Wistar rats [6]; historical OECD TG 422 feeding study, 15,000 ppm, first-generation offspring): 1125 mg/kg bw/day | NOAEL (Wistar rats [6]; historical OECD TG 422 feeding study, 15,000 ppm, parental females before pairing): 1076 mg/kg bw/day | NOAEL (Wistar rats [6]; historical OECD TG 422 feeding study, 15,000 ppm, parental males before pairing): 981 mg/kg bw/day | NOAEL (Wistar rats [6]; historical OECD TG 422 feeding study, highest concentration tested): 15,000 ppm
